Measured values as given in US6613770B1, “Quinoline derivatives as NK-2 and NK-3 receptor ligands” (SmithKline Beecham S.p.A., priority 1998, dated 2003).
Structures can show the parent of a compound that is named as a salt.

| SMILES | melting point [°C] |
| --- | --- |
| CCC(CC)NC(=O)c1c(CN2CCN(C(C)C)CC2)c(-c2ccccc2)nc2ccccc12 (as salt: HCl) [Example 4, 3-(4-Isopropyl-piperazin-1-ylmethyl)-2-phenyl-quinoline-4-carboxylic acid (1-ethyl-propyl)-amide] | 235 to 238 |
| O=C(N[C@H]1CCCc2ccccc21)c1c(CN2CCC(N3CCC(O)CC3)CC2)c(-c2ccccc2)nc2ccccc12 [Example 5, 3-(4-Hydroxy-[1,4′]bipiperidinyl-1′-ylmethyl)-2-phenyl-quinoline-4-carboxylic acid ((S)-1,2,3,4-tetrahydro-naphthalen-1-yl)-amide] | 144 to 146 |
| CC(C)NC(=O)c1c(CN2CCN(C(C)C)CC2)c(-c2ccccc2)nc2ccccc12 (as salt: HCl) [Example 3, 3-(4-Isopropyl-piperazin-1-ylmethyl)-2-phenyl-quinoline-4-carboxylic acid isopropylamide] | 198 to 200 |
| O=C(N[C@H]1CCc2ccccc21)c1c(CN2CCC(N3CCC(O)CC3)CC2)c(-c2ccccc2)nc2ccccc12 [Example 6, 3-(4-Hydroxy-[1,4′]bipiperidinyl-1′-ylmethyl)-2-phenyl-quinoline-4-carboxylic acid (S)-indan-1-ylamide] | 98 to 100 |

Continued, values first:

| melting point [°C] | SMILES |
| --- | --- |
| 215 to 217 | CC(C)CNC(=O)c1c(CN2CCN(C(C)C)CC2)c(-c2ccccc2)nc2ccccc12 [Example 2, 3-(4-Isopropyl-piperazin-1-ylmethyl)-2-phenyl-quinoline-4-carboxylic acid isobutyl-amide] |
| 219 to 220 | O=C(NC1C2CC3CC(C2)CC1C3)c1c(CN2CCC(N3CCCCC3)CC2)c(-c2ccccc2)nc2ccccc12 (centres unmarked) [Example 10, 3-[1,4′]Bipiperidinyl-1′-ylmethyl-2-phenyl-quinoline-4-carboxylic acid adamantan-2-ylamide] |
| 161 to 163 | CC(C)N1CCN(Cc2c(-c3ccccc3)nc3ccccc3c2C(=O)NC2CCCCC2)CC1 [Example 11, 3-(4-Isopropyl-piperazin-1-ylmethyl)-2-phenyl-quinoline-4-carboxylic acid cyclohexylamide] |
| 207 to 209 | C[C@H](NC(=O)c1c(CN2CCOCC2)c(-c2ccccc2)nc2ccccc12)C(C)(C)C [Example 7, 3-Morpholin-4-ylmethyl-2-phenyl-quinoline-4-carboxylic acid ((S)-1,2,2-trimethyl-propyl)-amide] |
